# Test results reported in the supplement of paper PMC11208160.
# Test: recombinant UMI read abundance after kanamycin selection (control-corrected) (log10(CPM+1)); higher = more efficient recombination; extreme values may be limits of the assay; sequences stand for … in AGTGCAGAGAAAATCGGCCAGTTTTCTCTGCCTGCAGTCCGCATGCCGTGGGACCCCTTGGGTTCTAACCTGTTGCCTAGATTTATGCAGCGGACTGCCTTTCTCCCAAAGTGATAAACCGG…AGGTTGGTTTCACT; site = the 11-nt donor
# Method in brief: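 For the IS621 bridge recombinase, a pooled Escherichia coli screen tested donor and donor-binding-loop pairs. Cells received the pair library together with a target plasmid encoding a fixed target and T7-inducible recombinase, then went onto IPTG (0.07 mM) plus kanamycin or unselected plates in duplicate. After PCR across the donor–target junction and sequencing, recombinant UMI counts were normalized to CPM, averaged, and scaled by control-derived factors. Each value is given as log10(CPM+1).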
row,Sequence,recombinant UMI read abundance (log10)
1,GGTCCAACATGGACCGGTTTTCCCGGTAATCCGTATTTGTA (site GGTCCAACTGA),0
2,GGTCCAACATGGACCGGTTTTCCCGGTAATCCGTATTTGTA (site GGTCCAACTTA),0.431
3,GGTCCAACATGGACCGGTTTTCCCGGTAATCCGTATTTGTA (site GGTCCAACTTC),0.0212
4,GGTCCAACATGGACCGGTTTTCCCGGTAATCCGTATTTGTA (site GGTCCAACTTG),0.016
5,GGTCCAACATGGACCGGTTTTCCCGGTAATCCGTATTTGTA (site GGTCCAACTTT),0.0114
6,GGTCCAACATGGACCGGTTTTCCCGGTAATCCGTATTTGTA (site GGTCCACCTTA),0.011
7,GGTCCAACATGGACCGGTTTTCCCGGTAATCCGTATTTGTA (site GGTCCAGCTTA),0.015
8,GGTCCAACATGGACCGGTTTTCCCGGTAATCCGTATTTGTA (site GGTCCATCTTA),0.583
9,GGTCCAACATGGACCGGTTTTCCCGGTAATCCGTATTTGTA (site GGTCCCACTTA),0.00585
10,GGTCCAACATGGACCGGTTTTCCCGGTAATCCGTATTTGTA (site GGTCCGACTTA),0.0188
11,GGTCCAACATGGACCGGTTTTCCCGGTAATCCGTATTTGTA (site GGTCCTACTTA),0.00929
12,GGTCCAACATGGACCGGTTTTCCCGGTAATCCGTATTTGTA (site GGTCGAACTTA),0.0172
13,GGTCCAACATGGACCGGTTTTCCCGGTAATCCGTATTTGTA (site GGTCTAACTTA),0.00385
14,GGTCCAACATGGACCGGTTTTCCCGGTAATCCGTATTTGTA (site GGTGCAACTTA),0.0122
15,GGTCCAACATGGACCGGTTTTCCCGGTAATCCGTATTTGTA (site GGTTCAACTTA),0.0111
16,GGTCCAACATGGACCGGTTTTCCCGGTAATCCGTATTTGTA (site GTTCCAACTTA),0.0101
17,GGTCCAACATGGACCGGTTTTCCCGGTAATCCGTATTTGTA (site TGTCCAACTTA),0.00249
18,GGTCCAACATGGACCGGTTTTCCCGGTAATCCGTATTTGTG (site GGTCCAACTAA),0.00832
19,GGTCCAACATGGACCGGTTTTCCCGGTAATCCGTATTTGTG (site GGTCCAACTCA),0.00564
20,GGTCCAACATGGACCGGTTTTCCCGGTAATCCGTATTTGTG (site GGTCCAACTGA),0
21,GGTCCAACATGGACCGGTTTTCCCGGTAATCCGTATTTGTG (site GGTCCAACTTA),0.00906
22,GGTCCCTCATGGACCGGTTTTCCCGGTAATCCGTATTTGTG (site GGTCCCTCTCA),0.413
23,GGTGAACCATGGACCGGTTTTCCCGGTAATCCGTATTTGGG (site GGTGAACCTCC),0
24,GGTGAAGCATGGACCGGTTTTCCCGGTAATCCGTATTTGAG (site GGTGAAGCTCT),1.82
25,GGTGACTCATGGACCGGTTTTCCCGGTAATCCGTATTTGAC (site GGTGACTCTGT),2.47

row,Sequence,recombinant UMI read abundance (log10)
1,GGTGAGGCATGGACCGGTTTTCCCGGTAATCCGTATTTGGT (site GGTGAGGCTAC),1.1
2,GGTGAGTCATGGACCGGTTTTCCCGGTAATCCGTATTTGGC (site GGTGAGTCTGC),2.23
3,GGTGCAACATGGACCGGTTTTCCCGGTAATCCGTATTTGTA (site GGTACAACTTA),0.01
4,GGTGCAACATGGACCGGTTTTCCCGGTAATCCGTATTTGTA (site GGTCCAACTTA),0.00521
5,GGTGCAACATGGACCGGTTTTCCCGGTAATCCGTATTTGTA (site GGTGCAACTTA),0.221
6,GGTGCAACATGGACCGGTTTTCCCGGTAATCCGTATTTGTA (site GGTTCAACTTA),0.00709
7,GGTGCGTCATGGACCGGTTTTCCCGGTAATCCGTATTTGGA (site GGTGCGTCTTC),0.59
8,GGTGTTCCATGGACCGGTTTTCCCGGTAATCCGTATTTGGT (site GATGTTCCTAC),0.0226
9,GGTGTTCCATGGACCGGTTTTCCCGGTAATCCGTATTTGGT (site GCTGTTCCTAC),0.0204
10,GGTGTTCCATGGACCGGTTTTCCCGGTAATCCGTATTTGGT (site GGTGTTCCTAC),0.0141
11,GGTGTTCCATGGACCGGTTTTCCCGGTAATCCGTATTTGGT (site GTTGTTCCTAC),0
12,GGTTACCCATGGACCGGTTTTCCCGGTAATCCGTATTTGTC (site GGTTACCCTGA),0.664
13,GGTTCCCCATGGACCGGTTTTCCCGGTAATCCGTATTTGTA (site AGTTCCCCTTA),0.0122
14,GGTTCCCCATGGACCGGTTTTCCCGGTAATCCGTATTTGTA (site CGTTCCCCTTA),0.00861
15,GGTTCCCCATGGACCGGTTTTCCCGGTAATCCGTATTTGTA (site GGTTCCCCTTA),0.0107
16,GGTTCCCCATGGACCGGTTTTCCCGGTAATCCGTATTTGTA (site TGTTCCCCTTA),0.0103
17,GGTTCCGCATGGACCGGTTTTCCCGGTAATCCGTATTTGAA (site GGTTCCGCTTT),0
18,GGTTCTACATGGACCGGTTTTCCCGGTAATCCGTATTTGAG (site GGTTCTACTCT),0.316
19,GGTTGGTCATGGACCGGTTTTCCCGGTAATCCGTATTTGCA (site GGTTGGTCTTG),1.59
20,GGTTTGTCATGGACCGGTTTTCCCGGTAATCCGTATTTGTG (site GGTTTGTCTCA),1.21
21,GTAAAATCATGGACCGGTTTTCCCGGTAATCCGTATTTGCA (site GTAAAATCTTG),1.81
22,GTAAAGACATGGACCGGTTTTCCCGGTAATCCGTATTTGGG (site GTAAAGACTCC),0.889
23,GTAACGCCATGGACCGGTTTTCCCGGTAATCCGTATTTGTC (site GTAACGCCTGA),0
24,GTAAGTTCATGGACCGGTTTTCCCGGTAATCCGTATTTGTC (site GTAAGTTCTGA),2.1
25,GTACAAGCATGGACCGGTTTTCCCGGTAATCCGTATTTGCA (site GTACAAGCTTG),2.69

row,Sequence,recombinant UMI read abundance (log10)
1,GTACCCACATGGACCGGTTTTCCCGGTAATCCGTATTTGTC (site GTACCCACTGA),2.64
2,GTACCTTCATGGACCGGTTTTCCCGGTAATCCGTATTTGAC (site GTACCTTCTGT),2.06
3,GTACGCACATGGACCGGTTTTCCCGGTAATCCGTATTTGTA (site GTAAGCACTTA),0.0204
4,GTACGCACATGGACCGGTTTTCCCGGTAATCCGTATTTGTA (site GTACGCACTTA),2.17
5,GTACGCACATGGACCGGTTTTCCCGGTAATCCGTATTTGTA (site GTAGGCACTTA),0.0167
6,GTACGCACATGGACCGGTTTTCCCGGTAATCCGTATTTGTA (site GTATGCACTTA),0.266
7,GTACTTCCATGGACCGGTTTTCCCGGTAATCCGTATTTGCT (site GTACTTCCTAG),1.14
8,GTAGCCGCATGGACCGGTTTTCCCGGTAATCCGTATTTGCG (site GTAGACGCTCG),0.446
9,GTAGCCGCATGGACCGGTTTTCCCGGTAATCCGTATTTGCG (site GTAGCCGCTCG),2.08
10,GTAGCCGCATGGACCGGTTTTCCCGGTAATCCGTATTTGCG (site GTAGGCGCTCG),0.0284
11,GTAGCCGCATGGACCGGTTTTCCCGGTAATCCGTATTTGCG (site GTAGTCGCTCG),0.781
12,GTAGCCTCATGGACCGGTTTTCCCGGTAATCCGTATTTGTT (site GTAGCCTCTAA),2.42
13,GTAGCGACATGGACCGGTTTTCCCGGTAATCCGTATTTGTC (site GTAGCGACTGA),2.92
14,GTAGCTACATGGACCGGTTTTCCCGGTAATCCGTATTTGAC (site GTAGATACTGT),1.02
15,GTAGCTACATGGACCGGTTTTCCCGGTAATCCGTATTTGAC (site GTAGCTACTGT),2.4
16,GTAGCTACATGGACCGGTTTTCCCGGTAATCCGTATTTGAC (site GTAGGTACTGT),0
17,GTAGCTACATGGACCGGTTTTCCCGGTAATCCGTATTTGAC (site GTAGTTACTGT),1.7
18,GTAGGCACATGGACCGGTTTTCCCGGTAATCCGTATTTGTA (site GTAAGCACTTA),1.08
19,GTAGGCACATGGACCGGTTTTCCCGGTAATCCGTATTTGTA (site GTACGCACTTA),0.279
20,GTAGGCACATGGACCGGTTTTCCCGGTAATCCGTATTTGTA (site GTAGGCACTTA),1.29
21,GTAGGCACATGGACCGGTTTTCCCGGTAATCCGTATTTGTA (site GTATGCACTTA),0.019
22,GTAGGCTCATGGACCGGTTTTCCCGGTAATCCGTATTTGCA (site GTAGGCTCTTG),2.94
23,GTAGGTACATGGACCGGTTTTCCCGGTAATCCGTATTTGAA (site GTAGGTACTAT),0
24,GTAGGTACATGGACCGGTTTTCCCGGTAATCCGTATTTGAA (site GTAGGTACTCT),0.518
25,GTAGGTACATGGACCGGTTTTCCCGGTAATCCGTATTTGAA (site GTAGGTACTGT),0.479
